Laboratory results reported in PubChem BioAssay AID1963828 (Molecular Pharmacology Branch, DTP, NCI, 2024).

Tested on: 991263-137-R1-J2-PDC complex spheroid viability
Assay: Anticancer human tumor 991263-137-R1-J2-PDC patient-derived colon adenocarcinoma cell line growth inhibition [POLQ]
Conditions: for IC50: curve of first compound; for viability, T/C: stronger effect = lower value
Experimental: Multicellular complex tumor spheroid response to Polymerase (POL) inhibitors (novobiocin, ART-558, RP6685) in combination with a variety of drugs and investigational agents in selected tumor cell lines
The POL inhibitors (novobiocin, ART-558, and RP6685) were evaluated both individually and in combination with standard of care and investigational anticancer small molecules within a complex spheroid model of solid tumors. . Complex spheroids include a stromal component modeled by human endothelial cells (HUVEC) and fibroblasts modeled by human mesenchymal stem cells (MSCs). The concentration ranges selected for each drug and investigational agent were based upon clinically achievable concentrations if the clinical Cmax of the agent was known.
Compounds. The drugs and investigational agents: novobiocin (NSC847541), ART-558 (NSC835418), RP-6685 (NSC848927), peposertib (NSC802822), ceralasertib (NSC780249), elimusertib (NSC800525), camonsertib (NSC841442), AZD-1390 (NSC803789), olaparib (NSC753686), talazoparib (NSC767125), rucaparib (NSC756644), sotorasib (NSC818433), MRTX-1133 (NSC836407), SN-38 (NSC673596), topotecan (NSC609699), epotoside (NSC141540), doxorubicin (NSC123127), gemcitabine (NSC613327), 5-fluorouracil (NSC19893), paclitaxel (NSC125973), vemurafenib (NSC761431), MSA-2 (NSC828583), SN-011 (NSC837082), adavosertib (NSC754352), prexasertib (NSC758257), carboplatin (NSC241240) and oxaliplatin (NSC266046), were obtained from the National Cancer Institute (NCI) Developmental Therapeutics Program Chemical Repository (21). The FDA-approved anticancer drug set is available from the Developmental Therapeutics Program at https://dtp.cancer.gov/organization/dscb/obtaining/. […] The stock solutions were prepared in dimethyl sulfoxide (DMSO, Sigma-Aldrich, St. Louis, MO, cat. D2650), except for the platinum compounds which were prepared in saline (Quality Biological, Gaithersburg, MD, cat. 114-055-101), at 800-fold the tested concentration and stored at -70 degrees C prior to their use. All drugs and investigational agents were tested over a range starting from a high concentration at or near the clinical Cmax and decreasing in half-log increments. If the clinical Cmax for an agent had not been determined, the highest concentration tested was 10 microM, except for SN-38, which was tested at a high concentration of 1 microM.
Cell Culture. All cells were maintained in an incubator at 37 degrees C and 5% CO2 with 95% humidity. The PDC lines were cultured according to standard operating procedures established by the NCI PDMR (https://pdmr.cancer.gov). Table 3 of the manuscript, lists the cell lines along with the number of the three cell types plated to form the mct-spheroids and media for tumor cell growth. After thawing, all PDC lines, except 997537-175-T-J1-PDC and 415267-285-R-J2-PDC, were cultured in Matrigel-coated flasks prepared with a working solution of 1X Ham's F-12 nutrient mix, without supplementation (Thermo Fisher Scientific, cat. 11765054), 100 U/mL penicillin-streptomycin (Thermo Fisher Scientific, cat. 15140122), and 2.5% Matrigel (Corning Inc., Corning, NY, cat. 354248) for the first three passages. The two PDC lines 997537-175-T-J1-PDC and 415267-285-R-J2-PDC were cultured on uncoated flasks. The 857933-349-R-J2-PDC line was cultured in 6C/Colon 1B media containing advanced DMEM/F-12 (Thermo Fisher Scientific, cat. 12634028), 10 mM HEPES (Thermo Fisher Scientific, cat. 15630080), 1X GlutaMAX supplement (Thermo Fisher Scientific, cat. 35050061), 0.1 mg/mL primocin (InvivoGen, San Diego, CA, cat. ant-pm-2), 10% defined fetal bovine serum, heat inactivated (HyClone Laboratories Inc., Logan, UT, cat. SH30070.03HI), 50% L-WRN conditioned media (ATCC, cat. CRL-3276), 1.25 mM N-Acetyl-L-cysteine (Sigma-Aldrich, cat. A9165), 10 mM nicotinamide (Sigma-Aldrich, cat. N0636), 1X B-27 supplement (Thermo Fisher Scientific, cat. 17504044), 1X N-2 supplement (Thermo Fisher Scientific, cat. […]

[1] = second compound 0.0316 µM, first compound 0.0316 µM
[2] = second compound 0.0316 µM, first compound 0.1 µM
[3] = second compound 0.0316 µM, first compound 0.316 µM
[4] = second compound 0.0316 µM, first compound 1 µM
[5] = second compound 0.1 µM, first compound 0.0316 µM
[6] = second compound 0.1 µM, first compound 0.1 µM
[7] = second compound 0.1 µM, first compound 0.316 µM
[8] = second compound 0.1 µM, first compound 1 µM
[9] = second compound 0.316 µM, first compound 0.0316 µM
[10] = second compound 0.316 µM, first compound 0.1 µM
[11] = second compound 0.316 µM, first compound 0.316 µM
[12] = second compound 0.316 µM, first compound 1 µM
[13] = second compound 1 µM, first compound 0.0316 µM
[14] = second compound 1 µM, first compound 0.1 µM
[15] = second compound 1 µM, first compound 0.316 µM
[16] = second compound 1 µM, first compound 1 µM
[17] = second compound 3.16 µM, first compound 0.0316 µM
[18] = second compound 3.16 µM, first compound 0.1 µM
[19] = second compound 3.16 µM, first compound 0.316 µM
[20] = second compound 3.16 µM, first compound 1 µM
[21] = second compound 10 µM, first compound 0.0316 µM
[22] = second compound 10 µM, first compound 0.1 µM
[23] = second compound 10 µM, first compound 0.316 µM
[24] = second compound 10 µM, first compound 1 µM
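Also: spheroids exposed to compounds for 7 days before readout.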
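For viability, T/C in this document: 100% = DMSO vehicle control viability.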

CNCc1ccc(-c2[nH]c3cc(F)cc4c3c2CCNC4=O)cc1 + COC1C(OC(N)=O)C(O)C(Oc2ccc3c(O)c(NC(=O)c4ccc(O)c(CC=C(C)C)c4)c(=O)oc3c2C)OC1(C)C
IC50 (second compound 0.0316 µM): > 10000 nM | IC50 (second compound 0.1 µM): > 10000 nM | IC50 (second compound 0.316 µM): > 10000 nM | IC50 (second compound 1 µM): > 10000 nM | IC50 (second compound 3.16 µM): > 10000 nM | IC50 (second compound 10 µM): > 10000 nM | viability, T/C [1]: 85.7% | viability, T/C [2]: 101% | viability, T/C [3]: 94% | viability, T/C [4]: 97.1% | viability, T/C (second compound 0.0316 µM, first compound 3.16 µM): 121% | viability, T/C (second compound 0.0316 µM, first compound 10 µM): 103% | viability, T/C [5]: 106% | viability, T/C [6]: 104% | viability, T/C [7]: 109% | viability, T/C [8]: 98.5% | viability, T/C (second compound 0.1 µM, first compound 3.16 µM): 101% | viability, T/C (second compound 0.1 µM, first compound 10 µM): 95.9% | viability, T/C [9]: 105% | viability, T/C [10]: 91.6% | viability, T/C [11]: 106% | viability, T/C [12]: 100% | viability, T/C (second compound 0.316 µM, first compound 3.16 µM): 99.6% | viability, T/C (second compound 0.316 µM, first compound 10 µM): 98.5% | viability, T/C [13]: 82.1% | viability, T/C [14]: 111% | viability, T/C [15]: 117% | viability, T/C [16]: 104% | viability, T/C (second compound 1 µM, first compound 3.16 µM): 110% | viability, T/C (second compound 1 µM, first compound 10 µM): 97.3% | viability, T/C [17]: 92.2% | viability, T/C [18]: 112% | viability, T/C [19]: 111% | viability, T/C [20]: 106% | viability, T/C (second compound 3.16 µM, first compound 3.16 µM): 119% | viability, T/C (second compound 3.16 µM, first compound 10 µM): 102% | viability, T/C [21]: 107% | viability, T/C [22]: 110% | viability, T/C [23]: 105% | viability, T/C [24]: 102% | viability, T/C (second compound 10 µM, first compound 3.16 µM): 119% | viability, T/C (second compound 10 µM, first compound 10 µM): 106%

COc1cccc(OCCCN)c1-c1cc(Nc2cnc(C#N)cn2)n[nH]1 + COC1C(OC(N)=O)C(O)C(Oc2ccc3c(O)c(NC(=O)c4ccc(O)c(CC=C(C)C)c4)c(=O)oc3c2C)OC1(C)C
IC50 (second compound 0.0316 µM): 276 nM | IC50 (second compound 0.1 µM): 421 nM | IC50 (second compound 0.316 µM): 338 nM | IC50 (second compound 1 µM): 459 nM | IC50 (second compound 3.16 µM): 491 nM | IC50 (second compound 10 µM): 513 nM | viability, T/C (second compound 0.0316 µM, first compound 0.00316 µM): 111% | viability, T/C (second compound 0.0316 µM, first compound 0.01 µM): 109% | viability, T/C [1]: 84.4% | viability, T/C [2]: 63.6% | viability, T/C [3]: 52.1% | viability, T/C [4]: 35.6% | viability, T/C (second compound 0.1 µM, first compound 0.00316 µM): 97.3% | viability, T/C (second compound 0.1 µM, first compound 0.01 µM): 89.4% | viability, T/C [5]: 92.9% | viability, T/C [6]: 69.2% | viability, T/C [7]: 59.6% | viability, T/C [8]: 28.7% | viability, T/C (second compound 0.316 µM, first compound 0.00316 µM): 99.3% | viability, T/C (second compound 0.316 µM, first compound 0.01 µM): 104% | viability, T/C [9]: 102% | viability, T/C [10]: 77.8% | viability, T/C [11]: 53.2% | viability, T/C [12]: 29.6% | viability, T/C (second compound 1 µM, first compound 0.00316 µM): 111% | viability, T/C (second compound 1 µM, first compound 0.01 µM): 80% | viability, T/C [13]: 80.6% | viability, T/C [14]: 75.8% | viability, T/C [15]: 61.4% | viability, T/C [16]: 33.7% | viability, T/C (second compound 3.16 µM, first compound 0.00316 µM): 109% | viability, T/C (second compound 3.16 µM, first compound 0.01 µM): 74.2% | viability, T/C [17]: 91.9% | viability, T/C [18]: 87.5% | viability, T/C [19]: 59.3% | viability, T/C [20]: 34.8% | viability, T/C (second compound 10 µM, first compound 0.00316 µM): 75.8% | viability, T/C (second compound 10 µM, first compound 0.01 µM): 95.2% | viability, T/C [21]: 90% | viability, T/C [22]: 76.9% | viability, T/C [23]: 59.3% | viability, T/C [24]: 37.9%
